The record followed here is ChEMBL document CHEMBL4145467, “Glycogen synthase kinase-3 and its inhibitors: Potential target for various therapeutic conditions” (Eur J Med Chem, 2018).

For data set [1], the target named is T1, Glycogen synthase kinase-3 beta (Homo sapiens, UniProt P49841). The data set is described as follows: Inhibition of recombinant GSK3-beta (unknown origin) assessed as decrease in phosphorylation of CREB at serine-129 in presence of ATP[gamma-33P] by filter binding assay.
Target sequence in this assay (P49841 whole entry): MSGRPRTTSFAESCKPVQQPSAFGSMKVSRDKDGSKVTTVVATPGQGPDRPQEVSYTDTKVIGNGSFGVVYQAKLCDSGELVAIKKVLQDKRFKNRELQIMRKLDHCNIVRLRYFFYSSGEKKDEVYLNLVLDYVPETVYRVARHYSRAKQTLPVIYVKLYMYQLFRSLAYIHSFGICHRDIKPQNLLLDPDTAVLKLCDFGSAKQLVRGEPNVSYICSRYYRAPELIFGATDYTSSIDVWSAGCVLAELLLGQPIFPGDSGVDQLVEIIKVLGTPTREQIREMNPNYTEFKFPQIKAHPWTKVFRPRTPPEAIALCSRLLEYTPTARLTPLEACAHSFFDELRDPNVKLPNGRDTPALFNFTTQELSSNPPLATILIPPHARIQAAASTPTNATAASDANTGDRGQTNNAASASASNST
The target of data set [2] is T2, Glycogen synthase kinase-3 alpha (Homo sapiens, UniProt P49840). Nature of the data set: Inhibition of human GSK3alpha using biotin-Ahx-AAAKRREILSRRP-S(PO3)YR-amide as substrate after 40 mins in presence of [33gammaP]-ATP by SPA.
The nature of data set [3]: Inhibition of recombinant rabbit GSK-3beta assessed as decrease in PPI-2 phosphorylation in presence of 33P-ATP after 90 mins by topcount scintillation counting. Also noted: species or system Oryctolagus cuniculus.
The species entered for another data set is Homo sapiens. The data set is described as follows: Selectivity ratio of IC50 for PKCbeta2 (unknown origin) to IC50 for GSK3-beta (unknown origin).
Data set [4] in a line: Inhibition of GSK-3beta (unknown origin).
Data set [5] has as its target T1, Glycogen synthase kinase-3 beta. Nature of the data set: Inhibition of human GSK3beta using YRRAAVPPSPSLSRHSSPHQS(PO4)EDEEE-NH2 as substrate after 60 mins in presence of [33gammaP]-ATP by topcount method.
Target sequence in this assay (P49841 whole entry): as the sequence (P49841 whole entry) above
A further data set deals with HT-29. Nature of the data set: Cytotoxicity against human HT-29 cells at 20 uM after 2 days by MTT assay relative to control. It is filed as functional.
In data set [6] the target is T1, Glycogen synthase kinase-3 beta. Nature of the data set: Inhibition of GSK3beta (unknown origin) at 20 uM using FITC-RRRRAAEELDSRAGS(PO4)PQL as substrate after 10 mins by capillary electrophoresis relative to control.
Target sequence in this assay (P49841 whole entry, looked up): as the sequence (P49841 whole entry) above
Data set [7] is described as follows: Oral bioavailability in Zucker fa/fa rat at 10 mg/kg. Particulars: in vivo. It is filed as ADME, organism-based.
The subject of the next data set is MCF7. The data set is described as follows: Cytotoxicity against human MCF7 cells assessed as reduction in cell viability after 68 hrs by MTT assay. It is filed as functional, cell-based. Particulars: MCF7, 68 h.
Data set [8] deals with T2, Glycogen synthase kinase-3 alpha. The data set is described as follows: Inhibition of human GSK3alpha.
The target of data set [9] is Glycogen synthase kinase 3 beta (Sus scrofa, UniProt B2LUN4). Nature of the data set: Inhibition of pig brain GSK3beta using GS1 as substrate after 30 mins.

Some results are limits rather than exact numbers.

T2 sequence (P49840 whole entry): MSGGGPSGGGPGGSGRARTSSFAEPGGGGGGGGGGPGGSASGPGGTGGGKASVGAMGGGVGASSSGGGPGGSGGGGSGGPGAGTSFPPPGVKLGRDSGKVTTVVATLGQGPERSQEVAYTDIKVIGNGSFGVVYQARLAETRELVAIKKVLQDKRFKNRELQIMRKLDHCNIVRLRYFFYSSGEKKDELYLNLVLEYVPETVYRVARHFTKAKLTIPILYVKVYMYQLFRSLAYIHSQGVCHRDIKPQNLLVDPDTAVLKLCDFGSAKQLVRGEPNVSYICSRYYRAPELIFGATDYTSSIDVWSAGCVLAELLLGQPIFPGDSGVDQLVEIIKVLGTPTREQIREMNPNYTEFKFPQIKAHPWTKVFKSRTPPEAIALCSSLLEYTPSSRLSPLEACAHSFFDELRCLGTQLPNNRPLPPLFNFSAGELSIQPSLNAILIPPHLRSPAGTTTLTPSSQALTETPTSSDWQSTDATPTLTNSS
Sequence of Glycogen synthase kinase 3 beta (B2LUN4 whole entry): as the sequence (P49841 whole entry) above, with V40M, T59A, T392S, A400T, T402A, A411T counted along it

Regarding `O=CN1Cc2cccc3c(C4=C(c5cnc6ccccn56)C(=O)NC4=O)cn(c23)CC1N1CCCCC1` (configuration not stated), the IC50 in [1] is 2 nM.

With `Fc1ccc(/C=N/Nc2ncnc3c2cnn3-c2ccccc2)cc1`, the IC50 in data set [2] stood at 6.2 nM.

Take `O=C1NC(=O)C(c2cn(CCCO)c3ncccc23)=C1c1cnccn1`: the IC50 in data set [3] amounted to 25 nM.

`O=C1NC(=O)C2=C1c1cn(c3ncccc13)CCCCC(O)CCCCn1cc2c2cccnc21`: in [3], the 50% inhibitory concentration (IC50) was determined as 11 nM.

On to `O=C1NC(=O)C(c2cn(CCCO)c3ncccc23)=C1c1ncc(C(F)(F)F)cc1Cl`, for which the Ratio IC50 in the data set filed under Homo sapiens is > 385. In data set [4], half-maximal inhibition (IC50) required 26 nM.

In the case of `CCNC(=O)c1nnn(-c2nonc2N)c1CN1CCCCC1`, the IC50 in data set [5] was found to be 280 nM.

Turning to `O=C1Nc2ccccc2C1=Cc1cc(CN2CCN(c3ccccc3Cl)CC2)on1`, the Activity in the data set on HT-29 came out at 78%. In [6], this molecule gave an inhibition of 72%.

As for `CC(C)OC1Cn2cc(C3=C(c4cnc5ccccn45)C(=O)NC3=O)c3cccc(c32)CN1C=O` (configuration not stated), the IC50 in data set [1] came out at 1.3 nM.

On to `O=C1NC(=O)C2=C1c1cn(c3ncccc13)CCOCCOCCOCCn1cc2c2cccnc21`, for which the 50% inhibitory concentration (IC50) in data set [3] was 17 nM.

Consider `COc1ccccc1C1=C(c2cn(CCCNC(=O)OC(C)(C)C)c3ncccc23)C(=O)NC1=O`, for which, in the data set filed under Homo sapiens, the Ratio IC50 was found to be 325. This molecule registered an IC50 in [4] of 7 nM.

Consider `O=CN1Cc2cc(F)cc3c(C4=C(c5cnc6ccccn56)C(=O)NC4=O)cn(c23)CC1N1CCCCC1` (configuration not stated), for which the IC50 in [1] amounted to 1.1 nM. In addition, the bioavailability in data set [7] came to 23%.

Regarding `Cc1ccc2ncc(C3=C(c4cn5c6c(cccc46)CN(C=O)C(N4CCCCC4)C5)C(=O)NC3=O)n2c1` (configuration not stated), the IC50 in data set [1] is 5.2 nM. This molecule showed a bioavailability in data set [7] of 45%.

As to `Oc1ccc2c(c1)OC[C@]1(O)Cc3cc(O)c(O)cc3[C@H]21` [BRAZILIN], the IC50 in the data set on MCF7 is 7230 nM.

For `O=CN1Cc2cccc3c(C4=C(c5cnc6ccccn56)C(=O)NC4=O)cn(c23)CC1N1CCOCC1` (configuration not stated), the half-inhibitory concentration (IC50) in [1] worked out at 1.3 nM.

Molecule `CCCCC(=O)Nc1n[nH]c2nnc(-c3ccccc3)cc12` showed a 50% inhibitory concentration (IC50) in data set [8] of 4 nM.

With `CN(C)C1Cn2cc(C3=C(c4cnc5ccccn45)C(=O)NC3=O)c3cccc(c32)CN1C=O` (configuration not stated), the IC50 in [1] was determined as 1.6 nM.

Turning to `CCOC(=O)c1c2[nH]c3ccccc3c2c(-c2ccc(NC(=O)CCN(C)C)cc2)c2c(=O)[nH][s+]([O-])c12` (configuration not stated), inhibition in [9] was half-maximal at 2800 nM (IC50).
